From patent publication US10441663B2, “Methods for treating cancer” (Bicycle Therapeutics Limited, priority 2016, dated 2019)
*1 amine or outer side, *2 acyl side, *3 side chain or, on linkers, in order; H or OH if unused. Where a SMILES comes first, the peptide text is derived from it. Bridges are numbered along the chain shown (N, C = ends). [ ]: non-standard residue; d: D form. The star is where a group is joined. X1 = COc1cc2cc(c1Cl)N(C)C(=O)C[C@H](OC(=O)[C@H](C)N(C)C(=O)CCSSC(C)CCC(=O)*)[C@]1(C)O[C@H]1[C@H](C)[C@@H]1C[C@@](O)(NC(=O)O1)[C@H](OC)/C=C/C=C(\C)C2; 1Nal = N[C@@H](Cc1cccc2ccccc12)C(=O)O; TBMB = c1c(C[*:1])cc(C[*:3])cc1C[*:2]; Tle = CC(C)(C)[C@H](N)C(=O)O; βAla = NCCC(=O)O; Sar = CNCC(=O)O

Columns and labels:
[1] = test system: 3LL syngeneic model; assay: In vivo efficacy of BT1718 alone or in combination with Anti-PD-1 antibody in 3LL syngeneic model (Example 10); design: species or system Mus Musculus
Protocol: The objective of the research was to evaluate the in vivo anti-tumor efficacy of BT1718 alone or in combination with Anti-PD-1 antibody in the treatment of the subcutaneous 3LL syngeneic model in C57BL/6 mice.
The 3LL tumor cells were maintained in vitro as a monolayer culture in medium supplemented with 10% heat inactivated fetal bovine serum at 37° C. in an atmosphere of 5% CO2 in air. The tumor cells were routinely subcultured twice weekly by trypsin-EDTA treatment. The cells growing in an exponential growth phase will be harvested and counted for tumor inoculation.
Each mouse was inoculated subcutaneously at the right flank with 3LL tumor cells (1×106) in 0.1 ml of PBS for tumor development. The animals were randomized and treatment was started when the average tumor volume reaches approximately 105 mm^3 for the efficacy study. The test article administration and the animal numbers in each group were shown in the experimental design table (Table 52).
All the procedures related to animal handling, care and the treatment in the study were performed according to the guidelines of the Association for Assessment and Accreditation of Laboratory Animal Care (AAALAC). At the time of routine monitoring, the animals were daily checked for any effects of tumor growth and treatments on normal behavior such as mobility, food and water consumption (by looking only), body weight gain/loss (body weights were measured every day), eye/hair matting and any other abnormal effect as stated in the protocol. Death and observed clinical signs were recorded on the basis of the numbers of animals within each subset.
The major endpoint was to see if the tumor growth could be delayed or mice could be cured. Tumor size was measured three times weekly in two dimensions using a caliper, and the volume was expressed in mm^3 using the formula: V=0.5 a×b2 where a and b are the long and short diameters of the tumor, respectively. The tumor size was then used for calculations of T/C value. The T/C value (in percent) is an indication of antitumor effectiveness; T and C are the mean volumes of the treated and control groups, respectively, on a given day.
TGI was calculated for each group using the formula: TGI (%)=[1−(Ti−T0)/(Vi−V0)]×100; Ti is the average tumor volume of a treatment group on a given day, T0 is the average tumor volume of the treatment group on the day of treatment start, Vi is the average tumor volume of the vehicle control group on the same day with Ti, and V0 is the average tumor volume of the vehicle group on the day of treatment start.
Summary statistics, including mean and the standard error of the mean (SEM), are provided for the tumor volume of each group at each time point.
Statistical analysis of difference in tumor volume among the groups was conducted on the data obtained at the best therapeutic time point after the final dose.
A one-way ANOVA was performed to compare tumor volume among groups, and when a significant F-statistics (a ratio of treatment variance to the error variance) was obtained, comparisons between groups were carried out with Games-Howell test. All data were analyzed using Prism. P<0.05 was considered to be statistically significant.

[2] = test system: HT1080 cell line; assay: In vitro cytotoxicity, ATP endpoint assay after 72 hours incubation; assay type: cell-based; conditions: HT-1080 cells
Protocol: To evaluate the in vitro cytotoxicity of BT1718 and BT1721 in an HT1080 cell line using an ATP endpoint assay after 72 hours incubation.
Cells were seeded in 96 well plates (75 μl/well, HT1080=7500−15000 cell/well) and incubated overnight at 37° C.+5% CO2.
The day after cell seeding, serial dilutions (1:5) of BT1718 and BT1721 were prepared in DMSO and diluted 1:71 in cell culture media to give 4× final concentrations. Twenty five μl/well was added to the cells (2 μM or 5 μM top final concentration of BT1718 and 2 μM or 5 μM top final concentration of BT1721, <0.6% final DMSO).
Cells were 30-50% confluent upon dosing. Control wells containing 5 μM final concentration of staurosporine (positive control), lysis buffer (1% NP40, 20 mM Tris pH8, 137 mM NaCl, 10% glycerol, 2 mM EDTA, 1 mM Na Orthovanadate, 10 μg/ml leupeptin, 10 μg/ml aprotinin) positive control or media (negative control), were also included. Plates were sealed with gas permeable seals and incubated at 37° C.+5% CO2 for 72 hours. No wash steps were performed.
After a total of 72 hours after dosing, ATPLite reagent (Perkin Elmer) was equilibrated to room temperate and reconstituted in the supplied buffer as per the manufacturer's instructions. One hundred μl 1× detection reagent was added per well. Plates were sealed, protected from light and shaken gently for 20 minutes to ensure complete cell lysis before luminescence was read using a BMG Pherastar FS plate reader. […] Data was analysed using GraphPad Prism. Non-linear regression fit was used to calculate a relative IC50 for each toxic agent: Y=Bottom+(Top−Bottom)/(1+10^((Log Ic50−X)*HillSlope)) where the IC50 is defined as 50% of the total cell kill achieved at the top concentration of toxin.

[3] = Vehicle, ip, biw + BT1718, 3 mpk, iv, biw, day 14
[4] = Vehicle, ip, biw + BT1718, 10 mpk, iv, biw, day 14

COc1cc2cc(c1Cl)N(C)C(=O)C[C@H](OC(=O)[C@H](C)N(C)C(=O)CCSSC(C)CCC(=O)NCCC(=O)N(C)CC(=O)N(C)CC(=O)N(C)CC(=O)N(C)CC(=O)N(C)CC(=O)N(C)CC(=O)N(C)CC(=O)N(C)CC(=O)N(C)CC(=O)N(C)CC(=O)N[C@@H](C)C(=O)N[C@H]1CSCc3cc4cc(c3)CSC[C@H](NC(=O)[C@@H](C)NC(=O)[C@H](Cc3cccc5ccccc35)NC(=O)[C@H](CCC(=O)O)NC(=O)[C@H](CC(N)=O)NC(=O)[C@@H](C)NC1=O)C(=O)N[C@@H](CCC(=O)O)C(=O)N[C@@H](CC(=O)O)C(=O)N[C@@H](Cc1ccccc1)C(=O)N[C@@H](Cc1ccc(O)cc1)C(=O)N[C@@H](CC(=O)O)C(=O)N[C@@H](C(C)(C)C)C(=O)N[C@H](C(N)=O)CSC4)[C@]1(C)O[C@H]1[C@H](C)[C@@H]1C[C@@](O)(NC(=O)O1)[C@H](OC)/C=C/C=C(\C)C2 (some centres unmarked) [BT1718] ({X1-βAla}-[Sar][Sar][Sar][Sar][Sar][Sar][Sar][Sar][Sar][Sar]AC[dA]NE[1Nal][dA]CEDFYD[Tle]C-NH2; linker 12-18-25 via TBMB (inferred))
TGI ([1]; BT1718 3 mg/kg, day 14): 72.9%
Tumor Volume ([1]; BT1718 3 mg/kg, day 14): 612 mm^3
TGI ([1]; BT1718 10 mg/kg, day 14): 98.1%
Tumor Volume ([1]; BT1718 10 mg/kg, day 14): 132 mm^3
tumor volume trace over time ([1]; Vehicle, ip, biw + BT1718, 3 mpk, iv, biw, day 0): 96 ± 7 mm^3
tumor volume trace over time ([1]; Vehicle, ip, biw + BT1718, 3 mpk, iv, biw, day 3): 167 ± 29 mm^3
tumor volume trace over time ([1]; Vehicle, ip, biw + BT1718, 3 mpk, iv, biw, day 7): 320 ± 71 mm^3
tumor volume trace over time ([1]; Vehicle, ip, biw + BT1718, 3 mpk, iv, biw, day 10): 396 ± 79 mm^3
T/C [1, 3]: 30.6%
TGI [1, 3]: 72.9%
tumor volume trace over time [1, 3]: 612 ± 133 mm^3
Tumor Volume ([1]; Vehicle, ip, biw + BT1718, 3 mpk, iv, biw, day 14, Mean ± SEM): 612 ± 133 mm^3
tumor volume trace over time ([1]; Vehicle, ip, biw + BT1718, 3 mpk, iv, biw, day 17): 968 ± 211 mm^3
tumor volume trace over time ([1]; Vehicle, ip, biw + BT1718, 3 mpk, iv, biw, day 21): 1177 ± 196 mm^3
tumor volume trace over time ([1]; Vehicle, ip, biw + BT1718, 10 mpk, iv, biw, day 0): 96 ± 6 mm^3
tumor volume trace over time ([1]; Vehicle, ip, biw + BT1718, 10 mpk, iv, biw, day 3): 134 ± 17 mm^3
tumor volume trace over time ([1]; Vehicle, ip, biw + BT1718, 10 mpk, iv, biw, day 7): 141 ± 18 mm^3
tumor volume trace over time ([1]; Vehicle, ip, biw + BT1718, 10 mpk, iv, biw, day 10): 128 ± 16 mm^3
T/C [1, 4]: 6.6%
TGI [1, 4]: 98.1%
tumor volume trace over time [1, 4]: 132 ± 26 mm^3
Tumor Volume ([1]; Vehicle, ip, biw + BT1718, 10 mpk, iv, biw, day 14, Mean ± SEM): 132 ± 26 mm^3
tumor volume trace over time ([1]; Vehicle, ip, biw + BT1718, 10 mpk, iv, biw, day 17): 129 ± 33 mm^3
tumor volume trace over time ([1]; Vehicle, ip, biw + BT1718, 10 mpk, iv, biw, day 21): 104 ± 41 mm^3
IC50 ([2]; ATP endpoint): 1 nM
relative cytotoxic activity versus BT1721 [2]: approximately ten-fold more active
